The source made the active and inactive calls. No cut-off for these calls is given here.

One assay concerns Rattus norvegicus. The assay is described as follows: Tested for inhibition of histamine-stimulated gastric acid secretion in the lumen-perfused anesthetized rat expressed as intravenous dose which reduces a near maximal secretion to 50%. Type of assay: functional. The following applies: Stomach, read-out: ID50 (the source's name).
As to `N=C(N)SCCc1c[nH]cn1` [IMETIT], the ED50 stood at 200 µmol/kg.
Turning to `N=C(N)NCCc1c[nH]cn1`, the ED50 was greater than 500 µmol/kg.
On the same count and under the same terms, as for `CSC(=N)NCCCc1c[nH]cn1`, the figure is 100 µmol/kg; as for `CC(=N)NCCCc1c[nH]cn1`, 100 µmol/kg; as for `N=C(N)NCCCc1c[nH]cn1`, 100 µmol/kg.

A further assay deals with Rattus norvegicus. Description: Tested for inhibition of histamine-stimulated gastric acid secretion in the lumen-perfused anesthetized rat expressed as intravenous dose which reduces a near maximal secretion to 50%; detectable. The following applies: Stomach. The class given is functional, organism-based.
On to `CSC(=N)NCCc1c[nH]cn1`, for which the ID50 entry is on record as “detectable”.
The same measure, in the same setting: as for `CC(=N)NCCc1c[nH]cn1`, the entry is “detectable”; as for `N=C(N)SCCCc1c[nH]cn1`, “inactive”.

These data come from ChEMBL document CHEMBL1121676, “1980 Award in Medicinal Chemistry: Medicinal chemistry and dynamic structure-activity analysis in the discovery of drugs acting at histamine H2 receptors” (1981).
